PubChem BioAssay (NCI)
Several values for one entry are separate records, joined by “and”; a condition that tells them apart may be missing. Identical values can stand only once.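 All cell lines were grown in 96-well plates and treated with compound for 48 hours. At the GI50, growth is halved. At the TGI there is no net growth.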

Legend:
Assay in all cases: NCI tumour cell line growth inhibition, 48 h
A549 NSCLC = tested on: A549 NSCLC
IGROV1 ovarian = tested on: IGROV1 ovarian
K-562 leukemia = tested on: K-562 leukemia
LOX IMVI melanoma = tested on: LOX IMVI melanoma
MALME-3M melanoma = tested on: MALME-3M melanoma
OVCAR-5 ovarian = tested on: OVCAR-5 ovarian
OVCAR-8 ovarian = tested on: OVCAR-8 ovarian
T-47D breast = tested on: T-47D breast
UACC-257 melanoma = tested on: UACC-257 melanoma
UO-31 renal = tested on: UO-31 renal

SMILES	TGI (A549 NSCLC)	TGI (IGROV1 ovarian)	TGI (K-562 leukemia)	TGI (LOX IMVI melanoma)	TGI (MALME-3M melanoma)	TGI (OVCAR-5 ovarian)	TGI (OVCAR-8 ovarian)	TGI (T-47D breast)	TGI (UACC-257 melanoma)	TGI (UO-31 renal)	GI50 (A549 NSCLC)	GI50 (IGROV1 ovarian)	GI50 (K-562 leukemia)	GI50 (LOX IMVI melanoma)	GI50 (MALME-3M melanoma)	GI50 (OVCAR-5 ovarian)	GI50 (OVCAR-8 ovarian)	GI50 (T-47D breast)	GI50 (UACC-257 melanoma)	GI50 (UO-31 renal)
O=c1[nH]cc(/C=N\Nc2ccccc2)c(=O)[nH]1	> 100 µM	> 100 µM	> 100 µM	> 100 µM	> 100 µM	> 100 µM	> 100 µM	> 100 µM	> 100 µM	> 100 µM	–	–	–	–	–	–	–	–	–	–
C=C(C)[C@@H]1CC[C@]2(C(N)=O)CC[C@]3(C)[C@H](CC[C@@H]4[C@@]5(C)CC[C@H](O)C(C)(C)[C@@H]5CC[C@]43C)[C@@H]12	5.39 µM	14.5 µM	19.4 µM	3.23 µM	8.15 µM	16.5 µM	> 100 µM	26.9 µM	> 100 µM	3.34 µM	2.11 µM	3.32 µM	3.04 µM	1.77 µM	2.39 µM	3.78 µM	3.12 µM	4.55 µM	13.2 µM	1.72 µM
C[C@@H](N)C1CCC(C(=O)Nc2ccncc2)CC1 (some centres undefined)	> 100 µM	> 100 µM	> 100 µM	> 100 µM	> 100 µM	> 100 µM	> 100 µM	> 100 µM	> 100 µM	> 100 µM	> 100 µM	81.6 µM	> 100 µM	> 100 µM	> 100 µM	> 100 µM	> 100 µM	> 100 µM	> 100 µM	> 34.1 µM
Cc1ncc(C(=O)Nc2ccc(CN3CCN(C)CC3)c(C(F)(F)F)c2)cc1C#Cc1cnc(N)c2cnccc12	4.87 µM	0.282 µM	1.29 µM	0.158 µM	0.042 µM	10.6 µM	16.3 µM	> 32.8 µM	1.29 µM	1.15 µM	0.202 µM	0.0294 µM	–	0.0335 µM	< 0.0113 µM	0.076 µM	0.112 µM	0.317 µM	0.0689 µM	0.289 µM
CCNCCC1(CC)C(=O)NC(=O)NC1=O	> 100 µM	> 100 µM	> 100 µM	> 100 µM	> 100 µM	> 100 µM	> 100 µM	> 100 µM	> 100 µM	> 100 µM	–	–	–	–	–	–	–	–	–	–
Cc1cccc(-c2nn3c(c2-c2ccnc4ccc(C(N)=O)cc24)CCC3)n1	> 100 µM	> 100 µM	> 100 µM	> 100 µM	> 100 µM	> 100 µM	> 100 µM	> 100 µM	> 100 µM	> 100 µM	> 100 µM	> 92.3 µM	> 100 µM	> 100 µM	57.2 µM	> 100 µM	> 100 µM	57.6 µM	> 100 µM	> 100 µM
COC(=O)C(Cc1cnc[nH]1)NC(=O)CNC(=O)CCCn1c(=O)c2c3ccccc3n(C)c2n2nnc(-c3ccccc3)c12 (centres undefined)	> 100 µM	> 100 µM	> 100 µM	> 100 µM	> 100 µM	> 100 µM	> 100 µM	> 100 µM	> 100 µM	> 100 µM	> 100 µM	72.5 µM	> 100 µM	> 100 µM	> 100 µM	> 100 µM	> 100 µM	> 100 µM	> 100 µM	> 100 µM
CC1=CC(=O)CC(C)(C)C1(O)/C=C/C(C)=C/C(=O)O (centres undefined)	> 100 µM	> 100 µM	> 100 µM	> 100 µM	> 100 µM	> 100 µM	> 100 µM	> 100 µM	> 100 µM	> 100 µM	–	–	–	–	–	–	–	–	–	–
CCCOc1ccc(-c2nc(-c3ccc(N=Cc4ccc(N(CCOS(C)(=O)=O)CCOS(C)(=O)=O)cc4C)cc3)cs2)cc1	34.2 µM	> 67.1 µM	> 100 µM	66.8 µM	> 95.6 µM	> 71.7 µM	> 100 µM	> 92.1 µM	> 100 µM	48 µM	–	–	–	–	–	–	–	–	–	–
Fc1ccc(-c2nn3c(CNc4ccccc4)nnc3s2)cc1	> 100 µM	> 100 µM	> 100 µM	96.7 µM	94.6 µM	> 100 µM	> 100 µM	> 100 µM	> 100 µM	> 100 µM	36.7 µM	49.3 µM	41.6 µM	29.4 µM	21.2 µM	30.2 µM	34.7 µM	29.6 µM	36.2 µM	42.8 µM
COC(=O)[C@H]1[C@@H](O)[C@@]2(O)c3c(OC)cc(O[C@@H]4O[C@@H]([C@H](O)CO)CO[C@H]4OC)cc3O[C@@]2(c2ccc(OC)cc2)[C@@H]1c1ccccc1	0.0457 µM	0.0717 µM	> 1 µM	0.00986 µM	0.0259 µM	0.0311 µM	0.136 µM	0.0199 µM	0.0451 µM	0.755 µM	0.00463 µM	0.00585 µM	0.00386 µM	0.00263 µM	0.00321 µM	0.00383 µM	0.0193 µM	0.00226 µM	0.00627 µM	0.136 µM
O=C(c1ccc(OCCN2CCCCC2)cc1)c1c(-c2ccc(O)cc2)sc2cc(O)ccc12	29.3 µM and 37.9 µM	28.9 µM and 38.5 µM	–	3.45 µM and 15.1 µM	23.5 µM and 28.9 µM	30.8 µM and 43.7 µM	31.5 µM and 51.3 µM	20 µM and > 50.2 µM	10.8 µM and 10.5 µM	22.3 µM and 27.7 µM	13.2 µM and 14.3 µM	12.3 µM and 16.5 µM	2.5 µM and 7.63 µM	1.76 µM and 4.06 µM	6.05 µM and 13.5 µM	16 µM and 20.6 µM	13.4 µM and 18.2 µM	2.77 µM and 5.89 µM	2.82 µM and 3.52 µM	10.1 µM and 9.8 µM
O=C1/C=C/[C@@H](O)[C@@H]2C[C@@H](O)C[C@H]2/C=C/CCC[C@H](CCc2ccc(C(F)(F)F)cc2)O1	> 100 µM	7.01 µM	> 100 µM	0.423 µM	2.88 µM	> 100 µM	> 100 µM	59.8 µM	> 40.2 µM	–	0.305 µM	0.309 µM	0.444 µM	0.161 µM	0.364 µM	0.505 µM	0.219 µM	0.318 µM	0.182 µM	0.259 µM
CC(C)CC1C(=O)N2CCC[C@H]2C2(O)O[C@](NC(=O)C3C=C4c5cccc6[nH]c(Br)c(c56)C[C@H]4N(C)C3)(C(C)C)C(=O)N12 (some centres undefined)	> 100 µM	> 100 µM	> 100 µM	> 100 µM	> 100 µM	> 100 µM	> 100 µM	> 100 µM	> 100 µM	> 100 µM	4.72 µM	6.79 µM	6.17 µM	21.6 µM	> 100 µM	–	–	2.9 µM	16.7 µM	2.02 µM
NCCCCCCCCn1c2c(c3ccccc3c1=O)C(=O)c1ccccc1-2	50.8 µM	–	3.67 µM	> 100 µM	8.86 µM	7.89 µM	> 100 µM	36.6 µM	20.6 µM	12.3 µM	8.93 µM	–	1.87 µM	3.64 µM	2.85 µM	2.67 µM	3.98 µM	4.97 µM	4.97 µM	3.36 µM
CN1CCC(CNc2ccc3ncc(-c4cccc(OC(F)(F)F)c4)n3n2)CC1	4.97 µM and > 10 µM	9.09 µM and 9.11 µM	4.95 µM and 6.01 µM	3.2 µM and 2.85 µM	3.25 µM and 3.23 µM	8.32 µM and > 10 µM	8.2 µM and > 10 µM	3.01 µM and 3.56 µM	3.05 µM and 2.8 µM	2.59 µM and 3.04 µM	1.85 µM and 2.3 µM	2.91 µM and 2.27 µM	1.65 µM and 1.7 µM	1.56 µM and 1.47 µM	1.64 µM and 1.65 µM	2.68 µM and 2.95 µM	2.46 µM and 2.89 µM	1.44 µM and 1.28 µM	1.51 µM and 1.44 µM	1.16 µM and 1.24 µM
COC(=O)[C@H]1C(=O)[C@@]2(C)[C@H]([C@H](OC(=O)c3ccccc3)[C@]3(O)C[C@H](OC(=O)[C@H](O)[C@@H](NC(=O)c4ccc(F)cc4)c4ccccc4)C(C)=C1C3(C)C)[C@]1(OC(C)=O)CO[C@@H]1C[C@@H]2O	> 25 µM	> 7.29 µM	–	> 25 µM	> 25 µM	> 25 µM	> 25 µM	> 25 µM	> 25 µM	> 25 µM	0.0116 µM	0.00478 µM	0.00917 µM	0.00974 µM	0.0187 µM	0.0149 µM	0.0171 µM	0.0106 µM	0.0673 µM	1.89 µM
COC(=O)[C@@]1(Cc2ccccc2)[C@H]2c3cc(C(=O)N4CCCC4)n(Cc4ccc(OC)c(OC)c4)c3C[C@H]2CN1C(=O)c1ccccc1	46.2 µM	–	37.3 µM	16.8 µM	21 µM	21.8 µM	34.1 µM	32.1 µM	15.2 µM	17.3 µM	13.7 µM	–	9.27 µM	9.12 µM	10.4 µM	9.19 µM	11.8 µM	9.55 µM	7.72 µM	8.5 µM
C[C@H](N)C(=O)N[C@@H]1[C@H]2C(=C(O)C[C@@H](O)[C@@H]2O)C(=O)O[C@]1(C)C(Cl)Cl	4.92 µM and 2.81 µM	7.79 µM and 2.43 µM	9.75 µM and 2.84 µM	0.454 µM and 0.675 µM	1.64 µM and 1.33 µM	7.44 µM and 3.44 µM	3.12 µM and 1.18 µM	7.69 µM and 4.18 µM	1.16 µM and 1.94 µM	5.47 µM and 5.41 µM	0.271 µM	0.441 µM	0.229 µM and 0.233 µM	0.106 µM	–	–	0.255 µM	0.8 µM	0.096 µM	0.763 µM
COc1cc(-c2nc(NC(C)=O)sc2-c2ccnc(NCCNS(=O)(=O)c3ccccc3)n2)ccc1Cl	> 100 µM	> 100 µM	> 100 µM	> 100 µM	> 100 µM	> 100 µM	> 100 µM	> 100 µM	> 100 µM	> 100 µM	4.5 µM	6.75 µM	3.87 µM	4.41 µM	3.8 µM	9.77 µM	5.21 µM	2.69 µM	5.37 µM	4.46 µM
COc1ccccc1-c1cc(/C=C2\C(=O)Nc3ncc(Br)cc32)cc(Br)c1O	> 25 µM	> 25 µM	> 25 µM	> 25 µM	> 25 µM	> 25 µM	> 25 µM	> 25 µM	> 25 µM	> 25 µM	11.8 µM	10.4 µM	9.76 µM	10.5 µM	16.4 µM	> 25 µM	> 19.1 µM	10.6 µM	16.4 µM	4.49 µM
C=CC(=O)N1C/C(=C\c2ccccc2)C(=O)/C(=C/c2ccccc2)C1	9 µM	4.2 µM	4.04 µM	0.638 µM	4.87 µM	5.72 µM	4.94 µM	18.4 µM	4.29 µM	3.43 µM	–	–	0.174 µM	0.357 µM	–	–	0.8 µM	–	–	–
CC(C)CCSC1=CC(=O)c2ccccc2C1=O	> 82.8 µM	5 µM	1.2 µM	15.6 µM	4.24 µM	34 µM	17.3 µM	3.51 µM	26.7 µM	4.18 µM	32.6 µM	1.06 µM	0.313 µM	3.56 µM	1.57 µM	18.1 µM	4.56 µM	1.19 µM	13.3 µM	0.627 µM
N=C(N)/N=C(\N)c1c(-c2cc(O)ccc2O)nc2sccn12	> 100 µM	44.1 µM	> 100 µM	44.5 µM	35.4 µM	33.1 µM	> 100 µM	45.1 µM	62.7 µM	47.9 µM	> 100 µM	22.5 µM	33 µM	22.8 µM	15.9 µM	18.3 µM	59.9 µM	20.7 µM	25.1 µM	22.3 µM
CNC(=O)c1c(NC(=O)c2ccc(C(F)(F)F)cc2)sc2c1CCC(=O)C2	8.49 µM	4.89 µM	–	2.27 µM	3.88 µM	2.76 µM	> 37.1 µM	2.38 µM	6.22 µM	1.4 µM	1.02 µM	0.471 µM	0.193 µM	0.361 µM	1.11 µM	0.607 µM	0.466 µM	0.305 µM	1.73 µM	0.302 µM
CO/[N+]([O-])=C\C(=O)N/C=C/C(=O)O	–	> 100 µM	> 100 µM	> 100 µM	> 100 µM	> 100 µM	> 100 µM	> 100 µM	> 100 µM	> 100 µM	–	–	–	–	–	–	–	–	–	–
